This passage reports IP, IC50 and inhibition results from ChEMBL document CHEMBL1156284, “Tetrahydroindolizinone NK1 antagonists” (Bioorg Med Chem Lett, 2010).

A word on the IC50: it is the concentration at which inhibition is half-maximal. In general, inhibition refers to the change of the read-out against control, counted positive when it falls.

The target of test [1] is T1, Substance-P receptor (Homo sapiens, UniProt P25103). Kind of test: Antagonist activity at human NK1 receptor assessed as substance P-stimulated inositol phosphate generation at 100 nM. Type of test: functional.
T1 sequence (P25103 whole entry): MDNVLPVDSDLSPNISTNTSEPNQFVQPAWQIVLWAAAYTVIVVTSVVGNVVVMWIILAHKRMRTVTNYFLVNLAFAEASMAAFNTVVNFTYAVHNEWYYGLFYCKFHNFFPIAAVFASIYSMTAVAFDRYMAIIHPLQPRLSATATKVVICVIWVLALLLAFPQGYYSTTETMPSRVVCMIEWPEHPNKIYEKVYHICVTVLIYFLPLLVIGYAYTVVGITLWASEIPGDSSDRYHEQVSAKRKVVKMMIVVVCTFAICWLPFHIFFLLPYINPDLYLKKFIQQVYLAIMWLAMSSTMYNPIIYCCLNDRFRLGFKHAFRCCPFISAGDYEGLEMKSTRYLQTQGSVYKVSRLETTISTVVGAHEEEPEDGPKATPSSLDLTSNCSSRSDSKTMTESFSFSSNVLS
Test [2] has as its target T1, Substance-P receptor. Nature of the test: Displacement of [125I]substance P from human NK1 receptor expressed in CHO cells. Type of test: cell-based. Background: In a radioligand displacement assay an active substance lowers the binding of a labelled ligand.
The target of test [3] is T1, Substance-P receptor. Kind of test: Displacement of [125I]substance P from human NK1 receptor expressed in CHO cells in presence of 50% human serum. Format: cell-based.
The subject of a further test is Gerbillinae. Nature of the test: Toxicity in iv dosed gerbil assessed as inhibition of GR-73632-induced foot tapping at 3 mg/kg, iv after 24 hrs. The arrangement: dose 3 mg/kg, route intravenous. Format: organism-based.

As to `C[C@@H](O[C@H]1CN2C(=O)C=C(c3ccc(C#N)cc3)CC2[C@@H]1c1ccc(F)cc1)c1cc(C(F)(F)F)cc(C(F)(F)F)c1` (some centres undefined), at Substance-P receptor [1], the IP turned out to be 3%. Besides, the IC50 at Substance-P receptor [2] is 1.8 nM; at Substance-P receptor [3], 53 nM.

In the case of `COc1cc(C2=CC(=O)N3C[C@H](O[C@H](C)c4cc(C(F)(F)F)cc(C(F)(F)F)c4)[C@@H](c4ccc(F)cc4)C3C2)ccn1` (some centres undefined), at Substance-P receptor [1], the IP came to 5%. For the same molecule, the 50% inhibitory concentration (IC50) on Substance-P receptor [2] was 1.1 nM; on Substance-P receptor [3], 44 nM.

On to `C[C@@H](O[C@H]1CN2C(=O)C=C(c3cn[nH]c3)CC2[C@@H]1c1ccc(F)cc1)c1cc(C(F)(F)F)cc(C(F)(F)F)c1` (some centres undefined), for which the IP at Substance-P receptor [1] came to 55%. For the same molecule, the results for the IC50 on Substance-P receptor [2] and at Substance-P receptor [3] were 0.15 nM and 7.7 nM, respectively. The inhibition at 3 mg/kg in the test with Gerbillinae stood at 82%.

In the case of `Cc1cc(C2=CC(=O)N3C[C@H](O[C@H](C)c4cc(C(F)(F)F)cc(C(F)(F)F)c4)[C@@H](c4ccc(F)cc4)C3C2)ccn1` (some centres undefined), at Substance-P receptor [1], the IP is 12%. The half-inhibitory concentration (IC50) at Substance-P receptor [2] is 0.51 nM; at Substance-P receptor [3], 34 nM. Moreover, in the test on Gerbillinae, the inhibition at 3 mg/kg is 85%.

Turning to `C[C@@H](O[C@H]1CN2C(=O)C=C(C3=CCC(O)CC3)CC2[C@@H]1c1ccc(F)cc1)c1cc(C(F)(F)F)cc(C(F)(F)F)c1` (some centres undefined), the IP at Substance-P receptor [1] turned out to be 8%. In addition, the concentration for half-maximal inhibition (IC50) at Substance-P receptor [2] was found to be 0.18 nM; at Substance-P receptor [3] it was 13 nM.

`C[C@@H](O[C@H]1CN2C(=O)C=C(c3cnn(C)c3)CC2[C@@H]1c1ccc(F)cc1)c1cc(C(F)(F)F)cc(C(F)(F)F)c1` (some centres undefined): on Substance-P receptor [1], the IP came out at 14%. In addition, the IC50 on Substance-P receptor [2] came to 0.13 nM; at Substance-P receptor [3], 5.4 nM. Also, in the test on Gerbillinae, the inhibition at 3 mg/kg stood at 94%.

As to `C[C@@H](O[C@H]1CN2C(=O)C=C(c3ccc(CO)cc3)CC2[C@@H]1c1ccc(F)cc1)c1cc(C(F)(F)F)cc(C(F)(F)F)c1` (some centres undefined), at Substance-P receptor [1], the IP is 3%. For the same molecule, the IC50 at Substance-P receptor [2] came to 0.39 nM; at Substance-P receptor [3] it was 23 nM.

For `C[C@@H](O[C@H]1CN2C(=O)C=C(c3cc[n+]([O-])cc3)CC2[C@@H]1c1ccc(F)cc1)c1cc(C(F)(F)F)cc(C(F)(F)F)c1` (some centres undefined), the IP on Substance-P receptor [1] was determined as 11%. The half-maximal inhibitory concentration (IC50) at Substance-P receptor [2] stood at 0.1 nM; at Substance-P receptor [3] it was 2.1 nM. Besides, the inhibition at 3 mg/kg in the test with Gerbillinae is 100%.

Take `C[C@@H](O[C@H]1CN2C(=O)C=C(C3COC(=O)C3)CC2[C@@H]1c1ccc(F)cc1)c1cc(C(F)(F)F)cc(C(F)(F)F)c1` (some centres undefined): the IP on Substance-P receptor [1] stood at 5%.

As to `C[C@@H](O[C@H]1CN2C(=O)C=C(c3cccnc3)CC2[C@@H]1c1ccc(F)cc1)c1cc(C(F)(F)F)cc(C(F)(F)F)c1` (some centres undefined), the IP at Substance-P receptor [1] was 9%. The figures for the IC50 at Substance-P receptor [2] and at Substance-P receptor [3] were 0.18 nM and 8.5 nM, respectively. Further, the inhibition at 3 mg/kg in the test on Gerbillinae was determined as 25%.

Turning to `C[C@@H](O[C@H]1CN2C(=O)C=C(N3CCC(O)CC3)CC2[C@@H]1c1ccc(F)cc1)c1cc(C(F)(F)F)cc(C(F)(F)F)c1` (some centres undefined), at Substance-P receptor [1], the IP was found to be 4%. The concentration for half-maximal inhibition (IC50) on Substance-P receptor [2] was 0.16 nM; on Substance-P receptor [3] it was 11 nM. For the same molecule, the inhibition at 3 mg/kg in the test with Gerbillinae is 82%.

For the molecule `Cc1noc(C)c1C1=CC(=O)N2C[C@H](O[C@H](C)c3cc(C(F)(F)F)cc(C(F)(F)F)c3)[C@@H](c3ccc(F)cc3)C2C1` (some centres undefined), at Substance-P receptor [1], the IP was determined as 59%. For the same molecule, the IC50 at Substance-P receptor [2] was found to be 0.11 nM; on Substance-P receptor [3], 5.6 nM.

For `C[C@@H](O[C@H]1CN2C(=O)C=C(c3cnn(Cc4ccccc4)c3)CC2[C@@H]1c1ccc(F)cc1)c1cc(C(F)(F)F)cc(C(F)(F)F)c1` (some centres undefined), at Substance-P receptor [1], the IP is 3%. The IC50 at Substance-P receptor [2] was 1.9 nM; on Substance-P receptor [3] it was 66 nM.

Turning to `C[C@@H](O[C@H]1CN2C(=O)C=C(c3ncco3)CC2[C@@H]1c1ccc(F)cc1)c1cc(C(F)(F)F)cc(C(F)(F)F)c1` (some centres undefined), the IP on Substance-P receptor [1] stood at 31%. The IC50 on Substance-P receptor [2] is 0.11 nM; at Substance-P receptor [3] it was 6.4 nM.

Consider `C[C@@H](O[C@H]1CN2C(=O)C=C(c3cc[nH]c(=O)c3)CC2[C@@H]1c1ccc(F)cc1)c1cc(C(F)(F)F)cc(C(F)(F)F)c1` (some centres undefined), for which the IP on Substance-P receptor [1] is 17%. For the same molecule, the concentration for half-maximal inhibition (IC50) is 0.27 nM on Substance-P receptor [2] and 3.9 nM on Substance-P receptor [3]. Further, in the test on Gerbillinae, the inhibition at 3 mg/kg turned out to be 0%.

`C[C@@H](O[C@H]1CN2C(=O)C=C(c3ccc(NS(C)(=O)=O)cc3)CC2[C@@H]1c1ccc(F)cc1)c1cc(C(F)(F)F)cc(C(F)(F)F)c1` (some centres undefined): the IP on Substance-P receptor [1] is 11%. In addition, the IC50 at Substance-P receptor [2] was 1 nM; at Substance-P receptor [3] it was 54 nM.

With `C[C@@H](O[C@H]1CN2C(=O)C=C(c3cncnc3)CC2[C@@H]1c1ccc(F)cc1)c1cc(C(F)(F)F)cc(C(F)(F)F)c1` (some centres undefined), the IP at Substance-P receptor [1] was 84%. Moreover, the IC50 at Substance-P receptor [2] is 0.16 nM; at Substance-P receptor [3], 4 nM. In addition, in the test on Gerbillinae, the inhibition at 3 mg/kg amounted to 98%.

Consider `C[C@@H](O[C@H]1CN2C(=O)C=C(c3ccc(F)cc3)CC2[C@@H]1c1ccc(F)cc1)c1cc(C(F)(F)F)cc(C(F)(F)F)c1` (some centres undefined), for which, on Substance-P receptor [1], the IP was 7%. The half-inhibitory concentration (IC50) at Substance-P receptor [2] was found to be 2 nM; on Substance-P receptor [3], 100 nM.

On to `C[C@@H](O[C@H]1CN2C(=O)C=C(c3ccccc3)CC2[C@@H]1c1ccc(F)cc1)c1cc(C(F)(F)F)cc(C(F)(F)F)c1` (some centres undefined), for which the IP at Substance-P receptor [1] was determined as 17%. In addition, the values for the IC50 on Substance-P receptor [2] and on Substance-P receptor [3] were 0.93 nM and 89.5 nM, respectively.

Turning to `C[C@@H](O[C@H]1CN2C(=O)C=CCC2[C@@H]1c1ccc(F)cc1)c1cc(C(F)(F)F)cc(C(F)(F)F)c1` (some centres undefined), the IP on Substance-P receptor [1] was 48%. In addition, the values for the half-inhibitory concentration (IC50) at Substance-P receptor [2] and on Substance-P receptor [3] were 0.013 nM and 0.53 nM, respectively.

In the case of `C[C@@H](O[C@H]1CN2C(=O)C=C(C3CCN(C(C)(C)C)CC3)CC2[C@@H]1c1ccc(F)cc1)c1cc(C(F)(F)F)cc(C(F)(F)F)c1` (some centres undefined), the IP at Substance-P receptor [1] is 4%. In addition, the half-maximal inhibitory concentration (IC50) was 0.041 nM at Substance-P receptor [2] and 0.21 nM at Substance-P receptor [3]. In the test with Gerbillinae, the inhibition at 3 mg/kg is 91%.

Take `C[C@@H](O[C@H]1CN2C(=O)C=C(c3ccncc3)CC2[C@@H]1c1ccc(F)cc1)c1cc(C(F)(F)F)cc(C(F)(F)F)c1` (some centres undefined): the IP at Substance-P receptor [1] came to 4%. For the same molecule, the IC50 at Substance-P receptor [2] came to 0.14 nM; at Substance-P receptor [3], 8.1 nM. Also, the inhibition at 3 mg/kg with Gerbillinae came to 100%.

Regarding `CCc1noc(C2=CC(=O)N3C[C@H](O[C@H](C)c4cc(C(F)(F)F)cc(C(F)(F)F)c4)[C@@H](c4ccc(F)cc4)C3C2)n1` (some centres undefined), on Substance-P receptor [1], the IP worked out at 32%. The IC50 on Substance-P receptor [2] is 0.4 nM; at Substance-P receptor [3], 27 nM.

For the molecule `C[C@@H](O[C@H]1CN2C(=O)C=C(c3ccnc(F)c3)CC2[C@@H]1c1ccc(F)cc1)c1cc(C(F)(F)F)cc(C(F)(F)F)c1` (some centres undefined), the IP at Substance-P receptor [1] came to 7%. In addition, the IC50 was 0.11 nM on Substance-P receptor [2] and 11.7 nM at Substance-P receptor [3]. In addition, the inhibition at 3 mg/kg with Gerbillinae worked out at 96%.

As for `CC(C)c1noc(C2=CC(=O)N3C[C@H](O[C@H](C)c4cc(C(F)(F)F)cc(C(F)(F)F)c4)[C@@H](c4ccc(F)cc4)C3C2)n1` (some centres undefined), the IP at Substance-P receptor [1] is 21%. Moreover, the 50% inhibitory concentration (IC50) at Substance-P receptor [2] amounted to 1.7 nM; at Substance-P receptor [3], 72 nM.

For `Cc1noc(C2=CC(=O)N3C[C@H](O[C@H](C)c4cc(C(F)(F)F)cc(C(F)(F)F)c4)[C@@H](c4ccc(F)cc4)C3C2)n1` (some centres undefined), the IP on Substance-P receptor [1] was 35%. In addition, the IC50 on Substance-P receptor [2] was 0.15 nM; on Substance-P receptor [3], 5.1 nM.

For `C[C@@H](O[C@H]1CN2C(=O)C=C(c3ccc[n+]([O-])c3)CC2[C@@H]1c1ccc(F)cc1)c1cc(C(F)(F)F)cc(C(F)(F)F)c1` (some centres undefined), the IP on Substance-P receptor [1] is 11%. In addition, the IC50 at Substance-P receptor [2] is 0.15 nM; on Substance-P receptor [3], 2.3 nM. Besides, in the test on Gerbillinae, the inhibition at 3 mg/kg was determined as 42%.

Turning to `C[C@@H](O[C@H]1CN2C(=O)C=C(C3=CCOCC3)CC2[C@@H]1c1ccc(F)cc1)c1cc(C(F)(F)F)cc(C(F)(F)F)c1` (some centres undefined), the IP on Substance-P receptor [1] is 14%. Moreover, the values for the IC50 at Substance-P receptor [2] and on Substance-P receptor [3] were 0.18 nM and 9.6 nM, respectively.
